Tested on: glp-4(bn2) worms
Assay: Longevity (life span) assay
Details: 50 μM in NGM, E. coli OP50, Fig 3A
Experimental: To test the long-term toxicity of the hit compounds, life span assays were carried out by placing sterile, young adult glp-4(bn2) worms on NGM (standard nematode growth media, defined in Materials and Methods) seeded with Escherichia coli OP50. […] Sterile worms were used to eliminate the need to transfer worms between plates during life span assays, and we elected to use glp-4(bn2) to induce sterility instead of using wild-type worms sterilized with 5-fluoro-2′-deoxyuridine (FUDR) because the interaction of the compounds could generate artifacts during the long course of life span experiments.
Worms were scored daily by prodding. […] The viability was normalized to a DMSO solvent control. […] Error bars represent standard error of the mean.
Worms were picked onto agar plates seeded with 50 µl of concentrated E. coli OP50. Compounds were added to liquid agar before pouring plates. Worms were scored every day for death by prodding with a platinum wire. Worms that escaped the plate or died on the wall of the plate were censored. Each compound was tested in at least three biological replicates, each including 50 to 70 worms.

Structure (SMILES): COC(=O)/C=C/C(=O)Nc1ccccc1 [LK32]
- TD50 (time to 50% death), life span: 8.8 days

Reference: article PMC7845594, “Novel Immune Modulators Enhance Caenorhabditis elegans Resistance to Multiple Pathogens” (mSphere, 2021)
